Data taken from patent publication US7498329B2, “Salt form of dopamine agonist” (Pfizer Inc., priority 2005, dated 2009).

Experiments:
dopamine D3 receptor [1] = molecular target: T1, dopamine D3 receptor (Homo sapiens, UniProt P35462); details: according to WO2004/052372; cited from earlier work
[2] = Water sorption / hygroscopicity (Dynamic Vapour Sorption); assay type: physicochemical
Method: Water sorption of 5-[(2R,5S)-5-methyl-4-propylmorpholin-2-yl]pyridin-2-amine di-S-camsylate monohydrate) at 30° C. Sorption at 90% RH is 0.316%(w/w) of dry weight. This value relates to non-bound water and is in addition to that involved in the crystal lattice.
Dynamic Vapour Sorption (DVS): Automated Sorption Analyser Model DVS-1. Manufactured by Surface Measurements Systems Ltd. UK. Solid (10-20 mg) is exposed to controlled relative humidity (% RH) environment and the weight change recorded over time. The humidity was stepped from 0 to 90 to 0% RH in 15% RH intervals. A rate of sorption of 0.0005%/min needs to be achieved at each humidity before exposure to the next humidity in the method. When a sample is deliquescent equilibrium sorption is not always achieved.

dopamine D3 receptor [3] = molecular target: T1, dopamine D3 receptor; experiment: Functional activity at the dopamine D3 receptor (methods of WO 2004/052372); assay type: cell-based
Method: Activity at the dopamine D3 receptor may be determined using the methods described in WO 2004/052372, which is incorporated herein by reference. […] Selectivity is calculated as the D2 EC50 value divided by the D3 EC50 value.

[4] = Hydrate stability under reduced partial pressure (vacuum drying conditions); assay type: physicochemical; details: reduced partial pressure at 40° C.
Source text: Typically a pharmaceutical hydrate would be expected to dehydrate within a few hours of exposure to 0% RH. […] This is a much higher temperature than would normally be expected for a hydrated salt. Such kinetic stability is desirable for allowing the compound to be successfully milled prior to formulation. • Many hydrates are not stable to the harsh vacuum drying conditions required in the isolation of a pharmaceutical drug product. However, 5-[(2R,5S)-5-methyl-4-propylmorpholin-2-yl]pyridin-2-amine di-S-camsylate monohydrate would be stable in such a process as, upon exposure to reduced partial pressure at 40° C., the hydrate remains down to 10 mbar.

[5] = Hydrate kinetic stability at 0% RH (isothermal thermogravimetric analysis); assay type: physicochemical
Method: Isothermal gravimetric analysis of 5-[(2R,5S)-5-methyl-4-propylmorpholin-2-yl]pyridin-2-amine di-S-camsylate monohydrate at 40, 45, 80 and 85° C. Material was held at a selected temperature with a 0% RH flow of nitrogen. 5-[(2R,5S)-5-methyl-4-propylmorpholin-2-yl]pyridin-2-amine di S-camsylate salt dehydrates at 85° C., 0% RH. Many hydrates would be lost at 30° C./0% RH.
ThermoGravimetric Analysis (TGA): Manufactured by TA instruments, model 2950. Approximately 8 mg of the sample was held at analysis temperature in an open pan with 0% RH nitrogen flow for a minimum of 30 min. Results are representative of the kinetic stability of the hydrate over the period of time the sample was exposed.

T1 sequence (P35462 whole entry, species assumed): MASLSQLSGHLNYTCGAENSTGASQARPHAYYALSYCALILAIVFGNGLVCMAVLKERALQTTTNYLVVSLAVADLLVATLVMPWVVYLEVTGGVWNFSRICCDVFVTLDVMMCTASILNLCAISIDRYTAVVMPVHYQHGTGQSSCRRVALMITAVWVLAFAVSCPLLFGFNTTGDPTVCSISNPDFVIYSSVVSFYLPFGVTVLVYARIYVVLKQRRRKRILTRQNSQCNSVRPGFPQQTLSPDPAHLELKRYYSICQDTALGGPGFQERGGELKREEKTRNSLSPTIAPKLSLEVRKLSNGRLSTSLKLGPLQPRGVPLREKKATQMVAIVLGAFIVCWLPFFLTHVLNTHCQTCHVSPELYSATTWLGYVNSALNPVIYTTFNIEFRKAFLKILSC

Compound: CCCN1C[C@@H](c2ccc(N)nc2)OC[C@@H]1C (single isomer, unassigned)
- D3 agonist activity (in words) (dopamine D3 receptor [1]): selective D3 agonist
- deliquescence [2]: deliquescent

Compound: CCCN1C[C@@H](c2ccc(N)nc2)OC[C@@H]1C [5-[(2R,5S)-5-methyl-4-propylmorpholin-2-yl]pyridine-2-amine, di((1S)-10-camphorsulfonate)monohydrate]
- EC50 (dopamine D3 receptor [3]): 21 nM
- selectivity for D3 over D2 (dopamine D3 receptor [3]; D2 EC50 value divided by the D3 EC50 value): 476 fold
- pressure down to which the hydrate remains [4]: 10 mbar
- deliquescence [2]: not deliquescent
- hygroscopicity [2]: non-hygroscopic
- water sorption ([2]; 90% RH, 30° C., non-bound water): 0.316 %(w/w) of dry weight
- dehydration of the hydrate ([5]; after 3.5 hours, 0% relative humidity (RH) at 30° C.): does not dehydrate
- temperature at which the dehydration event was observed ([5]; heating in a flow of 0% RH (nitrogen)): 85 °C
